# Results from patent US20240254096A1, “ULTRAVIOLET AND VISIBLE RADIATION ABSORBING COMPOUNDS” (ELKIMIA INC., priority 2021, published 2024).
# Assay: SPF in vitro / UVA PF from UV transmittance through thin film on PMMA plates
# Settings: for SPF in vitro mean / UV APF: 0.75 mg/cm^2; for SPF P / UV APF P: P (after irradiation, 800 J/m^2-eff)
# Experimental: For determining the SPF in vitro value, the protection performance of compounds according to certain embodiments of the present technology, against erythemally-effective UV radiation, largely confined to the UVB (290-320 nm) and short-wavelength UVA (320-340) region, was calculated from the measured in vitro transmittance. The in vitro UVA PF, the UVA protection (320-400 nm), was calculated from the measured in vitro transmittance after irradiation. The Critical Wavelength Value was defined as the wavelength at which the integral of the spectral absorbance curve reached 90% of the integral over the UV spectrum from 290 to 400 nm. It has been settled that this value must be equal or over 370 nm so as to classify the product as broad-spectrum. The study consisted in a comparative assay of non-treated plates against plates treated with each of the compounds and was based on the evaluation of UV-transmittance through a thin film of sunscreen sample spread on a roughened substrate, before an after exposure to a controlled dose of UV radiation from a UV source. A Kontron 933 spectrophotometer equipped with a UV source, an integrating sphere and a monochromatic light able to deliver a flow of energy between 290 and 400 nm was used. The transmittance values were measured at 1 nm intervals. A 10-4 precision laboratory balance was used to control deposited product weight. The irradiation was provided by Sunset Atlas CPS+ with standard filter. Temperature regulation of the equipment was done in the range of 25-35° C. A pre-irradiation dose of 4 times 200 J/m^2-eff (800 J/m^2-eff) was delivered. The substrate was the material to which the sunscreen product was applied. Polymethylmethacrylate (PMMA) plates were used and were roughened on one side to a three-dimensional surface topography of 5 micrometers. Each compound was weighted and applied evenly to the PMMA plate with a 2-phase spreading to achieve a 0.75 mg/cm^2 weight/surface ratio. Spreading was performed with a light spreading move for approximately 30 seconds followed by spreading with greater pressure for approximately 30 seconds. The resulting sample was left to equilibrate for 15 minutes in the dark at room temperature to ensure a self-leveling of the formula. To account for lack of photostability, a pre-irradiation was necessary. The pre-irradiation dose was 4 minimal erythema dose (MEDs), equivalent to 800 J/m^2-eff. Five measurements of spectral irradiance transmitted for each wavelength through the PMMA plate covered with the sunscreen product were obtained after pre-irradiation of the sunscreen product [P1( ), P2( ), P3( ), P4( ) and P5( )]. For each compound, mean absorbance values were determined from at least three individual PMMA plates. To validate the accuracy of the results, a control product with an established SPF of 18-20, Lot 11T0313 was tested simultaneously with the compounds. SPF in vitro was calculated for each plate using the Colipa 2011 equation.
smiles,measurement,value
CCOC(=O)C1CSC2=C(CC(C)(C)C/C2=N\c2ccc(/N=N/c3ccccc3)cc2)N1 (stereo not drawn) [Formula 15],SPF Change %,41%
same,ΔSPF,8
same,SPF in vitro mean,28.31
same,UV APF,4.52
same,SPF P,27.34
same,UV APF P,4.49
CCOC(=O)C1CSC2=C(CC(C)(C)C/C2=N\c2ccc(-c3ccccc3)cc2)N1 (stereo not drawn) [Formula 19],SPF Change %,35%
same,ΔSPF,7
same,SPF in vitro mean,27.12
same,UV APF,4.07
same,SPF P,24.31
same,UV APF P,3.92
CCOC(=O)CNC1=C/C(=N/c2ccc(-c3ccccc3)cc2)CC(C)(C)C1 [Formula 31],SPF Change %,63%
same,ΔSPF,13
same,SPF in vitro mean,32.75
same,UV APF,2.95
same,SPF P,30.52
same,UV APF P,2.88
CCOC(=O)CNC1=C/C(=N/c2ccc(/N=N/c3ccccc3)cc2)CC(C)(C)C1 [Formula 33],SPF Change %,81%
same,ΔSPF,16
same,SPF in vitro mean,36.23
same,UV APF,4.26
same,SPF P,33.16
same,UV APF P,4.36
CCOC(=O)CNC1=C/C(=N/c2ccc(/N=N/c3ccc([N+](=O)[O-])cc3)cc2)CC(C)(C)C1 [Formula 35],SPF Change %,7%
same,ΔSPF,2
same,SPF in vitro mean,21.53
same,UV APF,17.35
same,SPF P,17.94
same,UV APF P,14.64
COC(=O)C1CSC2=C(CC(C)(C)C/C2=N\c2ccc(OC)cc2)N1 (stereo not drawn) [Formula 43],SPF Change %,4%
same,ΔSPF,1
same,SPF in vitro mean,20.84
same,UV APF,4.02
same,SPF P,18.59
same,UV APF P,3.94
CCOC(=O)CNC1=CC(Nc2ccc(OC)cc2)CC(C)(C)C1 (stereo not drawn) [Formula 72],SPF Change %,18%
same,ΔSPF,4
same,SPF in vitro mean,23.61
same,UV APF,2.85
same,SPF P,21.12
same,UV APF P,2.74
COc1ccc(NC2C=C(NCC(=O)O)CC(C)(C)C2)cc1 (stereo not drawn) [Formula 73],SPF Change %,61%
same,ΔSPF,12
same,SPF in vitro mean,32.31
same,UV APF,16.05
same,SPF P,27.60
same,UV APF P,13.08
